Consider one compound from PMC8086025, “A benzopyran with antiarrhythmic activity is an inhibitor of Kir3.1-containing potassium channels” (The Journal of Biological Chemistry, 2021).

One assay deals with T1, Dopamine transporter (Homo sapiens, UniProt Q01959).
T1 construct: expressed in transfected cells; host or cells: CHO cells
In words: Radioligand binding, [3H]BTCP. As to conditions: 10 µM; read-out: % Specific Binding at 10 µM.

The next assay concerns the target T2, Kir3.1/4 channel (Homo sapiens, UniProt P48544+P48549).
T2 sequence (P48549 1-501): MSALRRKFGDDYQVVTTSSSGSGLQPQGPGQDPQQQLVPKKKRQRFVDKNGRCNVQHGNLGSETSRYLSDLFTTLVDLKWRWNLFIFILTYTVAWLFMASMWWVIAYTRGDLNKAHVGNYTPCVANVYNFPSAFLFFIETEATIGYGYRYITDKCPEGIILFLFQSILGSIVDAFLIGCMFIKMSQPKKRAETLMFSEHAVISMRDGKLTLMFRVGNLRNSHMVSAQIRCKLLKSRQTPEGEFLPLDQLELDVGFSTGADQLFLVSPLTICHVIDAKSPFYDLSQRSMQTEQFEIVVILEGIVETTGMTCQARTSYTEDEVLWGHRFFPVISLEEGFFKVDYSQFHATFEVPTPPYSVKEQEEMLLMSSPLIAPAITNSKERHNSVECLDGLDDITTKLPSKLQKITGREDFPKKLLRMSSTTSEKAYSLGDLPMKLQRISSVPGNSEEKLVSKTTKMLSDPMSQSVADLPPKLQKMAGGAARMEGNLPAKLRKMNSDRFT
T2 sequence (P48544 1-419): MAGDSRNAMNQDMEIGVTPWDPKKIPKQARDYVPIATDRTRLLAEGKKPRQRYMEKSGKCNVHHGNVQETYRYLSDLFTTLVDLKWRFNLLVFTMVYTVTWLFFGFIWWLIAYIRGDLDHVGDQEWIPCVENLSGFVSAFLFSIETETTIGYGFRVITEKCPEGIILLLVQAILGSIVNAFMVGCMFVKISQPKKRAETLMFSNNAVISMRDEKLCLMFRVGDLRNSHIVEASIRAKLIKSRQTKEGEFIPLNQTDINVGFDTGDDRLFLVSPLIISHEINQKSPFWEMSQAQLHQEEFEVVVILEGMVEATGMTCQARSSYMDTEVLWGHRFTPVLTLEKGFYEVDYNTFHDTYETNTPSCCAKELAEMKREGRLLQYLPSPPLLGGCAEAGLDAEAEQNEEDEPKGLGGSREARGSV
In words: TEVC in Xenopus oocytes, Kir3.1/4. It counts as cell-based. Set-up: expressed in transfected cells; host or cells: Xenopus laevis oocytes (cRNA injection). As to conditions: 1 μM, TEVC. As to the method:
(§1) X. laevis oocytes were isolated and microinjected as previously described ([6]). Human Kir3.1, mouse Kir3.2, and human Kir3.4 DNA constructs were used for electrophysiology experiments. All cRNA constructs were injected in the amount of 2 ng per oocyte. Injected oocytes were incubated for 2 to 3 days at 18 °C to allow for expression. Whole-cell oocyte currents were then measured using a GeneClamp 500 amplifier (Axon Instruments). Microelectrodes had resistances of 0.5 to 1 megohm using a 3M KCl solution in 1.4% agarose. Oocytes were perfused with a low K^+ (LK) solution ND96 (2 mM KCl, 96 mM NaCl, 1 mM MgCl2, 1.8 mM CaCl2, 5 mM HEPES-Na) to establish a baseline for the recordings. Basal current was measured in a high potassium (HK) solution ND96K (96 mM KCl, 10 mM HEPES-K, 1 mM MgCl2, 1.8 mM CaCl2). To block the current, the oocyte chamber was perfused with 4 mM BaCl2 in ND96K. Only the Barium-sensitive current was used for statistical analysis. To measure the inhibitory activity of the channels, 1 μM BP-G1 in ND96K (HK) was used. Typically, oocytes were held at 0 mV (EK) and the current was monitored constantly using a ramp protocol with a command potential from −80 to +80 mV. Current amplitude was measured at the end of a 1 s sweep. All currents were analyzed when they reached steady state. Error bars in the figures represent SD (N > 4).

Another assay concerns the target T3, 5-HT2A (Homo sapiens, UniProt P28223).
T3 construct: expressed in transfected cells; host or cells: HEK-293 cells
Description: Radioligand binding, [3H]ketanserin. As to conditions: read-out: % Specific Binding at 10 µM.

The target in a further assay is T4, Opioid Kappa (Rattus norvegicus, UniProt P34975).
T4 construct: expressed in transfected cells; host or cells: CHO cells
T4 sequence (P34975 whole entry): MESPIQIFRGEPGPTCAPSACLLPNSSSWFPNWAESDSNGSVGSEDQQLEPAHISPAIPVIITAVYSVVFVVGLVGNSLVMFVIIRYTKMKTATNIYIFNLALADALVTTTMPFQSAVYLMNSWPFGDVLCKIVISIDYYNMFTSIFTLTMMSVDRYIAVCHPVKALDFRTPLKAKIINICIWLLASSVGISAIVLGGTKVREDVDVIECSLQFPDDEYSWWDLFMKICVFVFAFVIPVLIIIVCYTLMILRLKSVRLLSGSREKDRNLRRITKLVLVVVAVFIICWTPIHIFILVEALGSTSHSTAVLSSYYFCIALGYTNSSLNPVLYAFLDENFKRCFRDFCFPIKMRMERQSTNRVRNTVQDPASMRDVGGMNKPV
Description: Radioligand binding, [3H]U 69593. The settings on record: read-out: % Specific Binding at 10 µM.

In another assay the test system is Ca. Description: Radioligand binding. The settings on record: listed as Benzopyran-G1 (SR).
The subject of a further assay is IKACh. In words: In vivo ECG, carbachol-induced heart rate slowing in anesthetized mice. The procedure: We tested the in vivo effects of BP-G1 versus those of BP-G1(SR) on heart rate in anesthetized adult mice (Fig. 8). ECG was continuously recorded. Panel A is the ECG showing that after carbachol (300 μl of 200 μM) was administered, i.p. (red mark), the heart decelerated, with a visible RR prolongation. About 10 min after carbachol injection, BP-G1 was delivered via the jugular vein (40 μl of 240 μM) (green mark). Within 5 min, there was a reversal of carbachol’s effects on the heart rate. Panel B is a control mouse showing heart rate slowing after carbachol administration (red mark).
Mice were anesthetized (1.5% isofluorane), and a 1.2 French octapolar catheter (Millar) with a drug delivery port was placed transvenously, through the jugular vein, into the right atrium. Continuous ECG was recorded using the Animal Bio Amp and PowerLab 4/35 Advanced Instruments apparatus. […] Saline control at the same volume was performed. Results are averages ±SD.

The next assay concerns the target T5, Histamine H2 (Homo sapiens, UniProt P25021).
T5 construct: expressed in transfected cells; host or cells: CHO cells
Description: Radioligand binding, [125I]APT. As to conditions: read-out: % Specific Binding at 10 µM.

In assay [1] the target is T6, Non-steroid nuclear receptors PPARγ (Homo sapiens, UniProt P37231).
T6 construct: purchased; host or cells: E. coli
T6 sequence (P37231 whole entry): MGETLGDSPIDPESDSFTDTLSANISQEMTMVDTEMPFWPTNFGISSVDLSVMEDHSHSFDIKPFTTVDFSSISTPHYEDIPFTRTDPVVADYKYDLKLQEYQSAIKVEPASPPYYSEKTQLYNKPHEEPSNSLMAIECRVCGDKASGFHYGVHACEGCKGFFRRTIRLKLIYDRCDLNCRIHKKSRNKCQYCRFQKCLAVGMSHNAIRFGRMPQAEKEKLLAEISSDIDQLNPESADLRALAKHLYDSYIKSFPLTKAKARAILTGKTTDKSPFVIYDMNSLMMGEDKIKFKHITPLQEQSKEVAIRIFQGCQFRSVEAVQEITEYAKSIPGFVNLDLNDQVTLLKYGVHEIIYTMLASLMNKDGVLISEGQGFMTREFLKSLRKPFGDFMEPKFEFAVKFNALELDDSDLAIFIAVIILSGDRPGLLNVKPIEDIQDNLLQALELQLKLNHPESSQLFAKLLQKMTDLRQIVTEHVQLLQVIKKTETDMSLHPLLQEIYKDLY
In words: Radioligand binding, [3H]rosiglitazone. The settings on record: read-out: % Specific Binding at 10 µM.

The next assay relates to Nav. Description: Radioligand binding, rat cerebral cortex.
In assay [2] the test system is GABA Cl- channel (GABA-gated). In words: Radioligand binding, [35S]TBPS. Further details: species or system rat. The settings on record: 10 µM; listed as Benzopyran-G1 (SR).
Another assay addresses T7, Neurokinin NK1 (Homo sapiens, UniProt P25103).
T7 construct: endogenous in cells; host or cells: U373MG uppsala
Description: Radioligand binding, [125I]-Substance P LYS3, U373MG uppsala. The settings on record: read-out: % Specific Binding at 10 µM.

In another assay the target is T8, Kir3.1/2 channel (UniProt P48542+P48549).
T8 sequence (P48549 1-501): T2 sequence (P48549 1-501)
T8 sequence (P48542 1-425): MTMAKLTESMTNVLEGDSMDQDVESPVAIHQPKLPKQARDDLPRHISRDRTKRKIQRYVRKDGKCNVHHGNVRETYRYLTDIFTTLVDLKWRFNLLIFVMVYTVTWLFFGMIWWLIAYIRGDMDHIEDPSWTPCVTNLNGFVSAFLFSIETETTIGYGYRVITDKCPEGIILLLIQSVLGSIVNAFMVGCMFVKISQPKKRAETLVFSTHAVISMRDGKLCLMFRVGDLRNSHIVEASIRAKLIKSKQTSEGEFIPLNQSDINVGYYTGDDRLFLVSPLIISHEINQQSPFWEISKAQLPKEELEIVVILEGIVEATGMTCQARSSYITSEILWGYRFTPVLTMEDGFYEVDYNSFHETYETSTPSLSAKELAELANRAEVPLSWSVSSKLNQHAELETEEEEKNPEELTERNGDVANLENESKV
Description: TEVC in Xenopus oocytes, Kir3.1/2. It counts as cell-based, human Kir3.1, mouse Kir3.2. Set-up: expressed in transfected cells. As to conditions: TEVC. As to the method:
as §1

“And” between values parts separate entries of the source, which are not always exact repeats. Equal entries are not always repeated. “Also recorded” adds a separate entry of the source. Bounds are passed on as bounds.

T5 sequence (P25021 whole entry): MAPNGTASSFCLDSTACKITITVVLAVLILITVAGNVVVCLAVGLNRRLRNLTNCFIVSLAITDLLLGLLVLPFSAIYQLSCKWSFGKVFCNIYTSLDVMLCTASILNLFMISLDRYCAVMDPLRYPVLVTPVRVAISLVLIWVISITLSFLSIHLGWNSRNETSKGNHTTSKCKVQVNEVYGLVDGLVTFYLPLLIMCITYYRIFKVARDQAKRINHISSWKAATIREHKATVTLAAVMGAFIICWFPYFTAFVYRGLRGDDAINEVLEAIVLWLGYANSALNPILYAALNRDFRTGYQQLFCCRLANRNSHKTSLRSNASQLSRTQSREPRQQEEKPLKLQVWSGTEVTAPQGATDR
T7 sequence (P25103 whole entry): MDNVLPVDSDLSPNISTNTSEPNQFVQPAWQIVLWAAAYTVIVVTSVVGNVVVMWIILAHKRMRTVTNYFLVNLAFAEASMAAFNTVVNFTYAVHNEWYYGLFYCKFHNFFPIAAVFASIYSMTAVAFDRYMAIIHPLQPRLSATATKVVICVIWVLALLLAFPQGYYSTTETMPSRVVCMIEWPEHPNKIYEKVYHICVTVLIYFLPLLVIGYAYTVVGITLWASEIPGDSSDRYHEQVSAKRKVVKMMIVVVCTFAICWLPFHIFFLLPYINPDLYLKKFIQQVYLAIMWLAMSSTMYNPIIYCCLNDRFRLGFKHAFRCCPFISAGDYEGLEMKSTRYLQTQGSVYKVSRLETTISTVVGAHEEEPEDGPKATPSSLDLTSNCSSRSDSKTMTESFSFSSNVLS
T1 sequence (Q01959 whole entry): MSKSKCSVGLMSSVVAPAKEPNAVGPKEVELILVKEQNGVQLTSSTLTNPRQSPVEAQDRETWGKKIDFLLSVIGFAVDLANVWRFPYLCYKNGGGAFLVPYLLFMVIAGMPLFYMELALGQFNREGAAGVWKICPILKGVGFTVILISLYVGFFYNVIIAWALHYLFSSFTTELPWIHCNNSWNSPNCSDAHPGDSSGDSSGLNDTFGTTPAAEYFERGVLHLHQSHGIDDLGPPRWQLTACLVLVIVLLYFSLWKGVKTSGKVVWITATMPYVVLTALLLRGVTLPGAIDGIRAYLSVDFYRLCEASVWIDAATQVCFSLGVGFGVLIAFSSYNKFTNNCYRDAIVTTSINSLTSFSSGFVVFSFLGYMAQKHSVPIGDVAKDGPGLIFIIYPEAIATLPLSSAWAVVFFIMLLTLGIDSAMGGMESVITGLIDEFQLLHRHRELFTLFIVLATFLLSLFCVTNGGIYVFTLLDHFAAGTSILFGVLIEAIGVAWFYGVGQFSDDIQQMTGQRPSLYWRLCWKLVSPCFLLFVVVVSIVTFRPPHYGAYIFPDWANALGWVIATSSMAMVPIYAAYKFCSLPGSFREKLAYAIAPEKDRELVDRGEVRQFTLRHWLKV
T3 sequence (P28223 whole entry): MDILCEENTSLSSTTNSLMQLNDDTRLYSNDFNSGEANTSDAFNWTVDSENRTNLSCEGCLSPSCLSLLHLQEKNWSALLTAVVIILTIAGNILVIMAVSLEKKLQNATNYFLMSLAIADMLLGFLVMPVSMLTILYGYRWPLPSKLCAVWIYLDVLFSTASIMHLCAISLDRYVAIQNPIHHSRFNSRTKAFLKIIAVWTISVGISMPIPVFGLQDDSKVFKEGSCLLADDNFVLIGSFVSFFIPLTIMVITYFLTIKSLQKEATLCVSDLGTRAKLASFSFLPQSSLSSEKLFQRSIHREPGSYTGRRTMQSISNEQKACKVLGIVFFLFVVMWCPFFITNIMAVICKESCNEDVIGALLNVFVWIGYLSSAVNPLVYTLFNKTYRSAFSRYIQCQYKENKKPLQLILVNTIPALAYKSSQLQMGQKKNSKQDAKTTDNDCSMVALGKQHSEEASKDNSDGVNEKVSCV

With `Cc1cc(CO)nc2cc3c(cc12)OC(C)(C)[C@@H](O)[C@@H]3NCCc1ccccc1` [BP-G1(SR), (3S,4R)-7-(hydroxymethyl)-2,2,9-trimethyl-4-(2-phenylethylamino)-3,4-dihydropyrano[2,3-g]quinolin-3-ol], the inhibition at 10 µM at Dopamine transporter was found to be 44.6%; at 5-HT2A, 46.4%; on Opioid Kappa it was 31.3%; on Histamine H2, 83.6%; in assay [1], 58.3%; at Neurokinin NK1, 64.2%. Moreover, the “inhibitory activity on Kir3.1/4 channel” value at Kir3.1/4 channel is recorded as “nominally inhibits; also recorded: unable to effectively inhibit”. Moreover, the “% Specific Binding at 10 µM” value was 28.633% and < 50% in the assay on Ca; 68.800% in the assay with Nav; less than 50% in [2]. For the same compound, the “RR interval 5 min after compound, given about 10 min after carbachol” value in the assay on IKACh (40 μl of 240 μM via jugular vein, anesthetized mice, mean ± SD, N = 3) turned out to be 551.6 ± 185 ms. The “heart rate recovery after carbachol” value with IKACh (40 μl via jugular vein) is listed as “the heart rate did not recover to baseline”. Further, the “inhibitory activity on Kir3.1/2 channel” value against Kir3.1/2 channel is given as “nominally inhibits; also recorded: unable to effectively inhibit”.
